According to ChEMBL document CHEMBL3124761, “Synthesis and biological evaluation of N,N'-squaramides with high in vivo efficacy and low toxicity: toward a low-cost drug against Chagas disease” (J Med Chem, 2014):
pIC50: −log10 of the molar value. Active and inactive are the calls of the source. The rule behind the calls is not given here.

Assays:
Mus musculus [1] = assay: Toxicity in BALB/c albino mouse infected with blood trypomastigote stage of Trypanosoma cruzi assessed as change in uric acid level in serum at 25 mg/kg, ip administered on day 7 to 12 post-infection measured after day 120 relative to control; type: organism-based; set-up: dose 25 mg/kg, route intraperitoneal; details: in vivo
Mus musculus [2] = assay: Toxicity in BALB/c albino mouse assessed as mortality at 25 mg/kg, ip administered for 5 days; type: organism-based; set-up: dose 25 mg/kg, route intraperitoneal; details: in vivo, 120 h
Trypanosoma cruzi [3] = assay: Antitrypanosomal activity against epimastigote stage of Trypanosoma cruzi IRHOD/CO/2008/SN3 assessed as change in excreted acetate level at IC25 after 96 hrs by 1H NMR analysis relative to control; type: functional
Trypanosoma cruzi [4] = assay: Antitrypanosomal activity against epimastigote stage of Trypanosoma cruzi IRHOD/CO/2008/SN3 assessed as change in excreted alanine level at IC25 after 96 hrs by 1H NMR analysis relative to control; type: functional
Trypanosoma cruzi [5] = assay: Antitrypanosomal activity against trypomastigote stage of Trypanosoma cruzi IRHOD/CO/2008/SN3 assessed as reduction of trypomastigote number per mililiter of culture medium at IC25 preincubated for 12 hrs followed by compound washout measured every 48 hrs for 10 days by Neubauer hemocytometric chamber analysis relative to control; type: functional
Mus musculus [6] = assay: Toxicity in BALB/c albino mouse infected with blood trypomastigote stage of Trypanosoma cruzi assessed as increase in total bilirubin level in serum at 25 mg/kg, ip administered on day 7 to 12 post-infection measured after day 120 relative to control; type: organism-based; set-up: dose 25 mg/kg, route intraperitoneal; details: in vivo
Trypanosoma cruzi [7] = assay: Antitrypanosomal activity against epimastigote stage of Trypanosoma cruzi IRHOD/CO/2008/SN3 assessed as parasite growth inhibition after 72 hrs by Neubauer hemocytometric chamber analysis; type: functional, organism-based; details: IRHOD/CO/2008/SN3, 72 h
Trypanosoma cruzi [8] = assay: Trypanocidal activity against metacyclic trypomastigote stage of Trypanosoma cruzi infected in BALB/c albino mouse acute chagas disease model assessed as reduction of parasite burden at 25 mg/kg, ip administered on day 7 to 12 post-infection measured on day 14 by ELISA; type: functional, organism-based; set-up: dose 25 mg/kg
Trypanosoma cruzi [9] = assay: (§1) Antitrypanosomal activity against amastigote stage of Trypanosoma cruzi IRHOD/CO/2008/SN3 infected in African green monkey Vero cells assessed as decrease in infection rate at IC25 preincubated for 12 hrs followed by compound washout measured every 48 hrs for 10 days by Neubauer hemocytometric chamber analysis relative to control; type: functional
Trypanosoma cruzi [10] = assay: Trypanocidal activity against metacyclic trypomastigote stage of Trypanosoma cruzi infected in BALB/c albino mouse acute chagas disease model assessed as inhibition of parasitemia at 25 mg/kg, ip administered on day 7 to 12 post-infection measured every 2 days until day 40 […] relative to control; type: functional; details: route intraperitoneal
Trypanosoma cruzi [11] = assay: Antitrypanosomal activity against epimastigote stage of Trypanosoma cruzi IRHOD/CO/2008/SN3 assessed as change in excreted lactate level at IC25 after 96 hrs by 1H NMR analysis relative to control; type: functional
Mus musculus [12] = assay: Toxicity in BALB/c albino mouse infected with blood trypomastigote stage of Trypanosoma cruzi assessed as decrease in ALT/GPT level in serum at 25 mg/kg, ip administered on day 7 to 12 post-infection measured after day 120 relative to control; type: organism-based; set-up: dose 25 mg/kg, route intraperitoneal; scale not given: the % may be the effect or the level left; details: in vivo
Trypanosoma cruzi [13] = assay: Antitrypanosomal activity against epimastigote stage of Trypanosoma cruzi IRHOD/CO/2008/SN3 assessed as change in excreted pyruvate level at IC25 after 96 hrs by 1H NMR analysis relative to control; type: functional
Vero = assay: Cytotoxicity against African green monkey Vero cells assessed as cell viability after 72 hrs by propidium iodide/fluorescein diacetate staining-based flow cytometric analysis; details: Chlorocebus sabaeus
Mus musculus [14] = assay: Toxicity in BALB/c albino mouse infected with blood trypomastigote stage of Trypanosoma cruzi assessed as change in LDH level in serum at 25 mg/kg, ip administered on day 7 to 12 post-infection measured after day 120 relative to control; type: organism-based; set-up: dose 25 mg/kg, route intraperitoneal; details: in vivo
[15] = Selectivity index, ratio of IC50 for African green monkey Vero cells to IC50 for epimastigote stage of Trypanosoma cruzi IRHOD/CO/2008/SN3; type: toxicity, cell-based; details: read-out: Ratio IC50
Trypanosoma cruzi [16] = assay: Antitrypanosomal activity against epimastigote stage of Trypanosoma cruzi IRHOD/CO/2008/SN3 assessed as change in excreted succinate level at IC25 after 96 hrs by 1H NMR analysis relative to control; type: functional
Mus musculus [17] = assay: Toxicity in BALB/c albino mouse infected with blood trypomastigote stage of Trypanosoma cruzi assessed as decrease in creatinephophokinase-MB level in serum at 25 mg/kg, ip administered on day 7 to 12 post-infection measured after day 120 relative to control; type: organism-based; set-up: dose 25 mg/kg, route intraperitoneal; scale not given: the % may be the effect or the level left; details: in vivo
Mus musculus [18] = assay: Toxicity in BALB/c albino mouse infected with blood trypomastigote stage of Trypanosoma cruzi assessed as change in urea level in serum at 25 mg/kg, ip administered on day 7 to 12 post-infection measured after day 120 relative to control; type: organism-based; set-up: dose 25 mg/kg, route intraperitoneal; details: in vivo
Mus musculus [19] = assay: Toxicity in BALB/c albino mouse infected with blood trypomastigote stage of Trypanosoma cruzi assessed as change in alkaline phosphatase level in serum at 25 mg/kg, ip administered on day 7 to 12 post-infection measured after day 120 relative to control; type: organism-based; set-up: dose 25 mg/kg, route intraperitoneal; details: in vivo
Trypanosoma cruzi [20] = assay: Antitrypanosomal activity against amastigote stage of Trypanosoma cruzi IRHOD/CO/2008/SN3 infected in African green monkey Vero cells assessed as parasite growth inhibition after 72 hrs by Giemsa staining-based microscopic analysis; type: functional, organism-based; details: IRHOD/CO/2008/SN3, Vero
Mus musculus [21] = assay: Toxicity in BALB/c albino mouse infected with blood trypomastigote stage of Trypanosoma cruzi assessed as increase in AST/GOT level in serum at 25 mg/kg, ip administered on day 7 to 12 post-infection measured after day 120 relative to control; type: organism-based; set-up: dose 25 mg/kg, route intraperitoneal; details: in vivo
Trypanosoma cruzi [22] = assay: as §1, with “reduction of amastigote number per cell” for “decrease in infection rate”; type: functional
[23] = Selectivity index, ratio of IC50 for African green monkey Vero cells to IC50 for amastigote stage of Trypanosoma cruzi IRHOD/CO/2008/SN3 infected in African green monkey Vero cells; type: toxicity, cell-based; details: read-out: Ratio IC50

CCCCNc1c(NCCCN(CCCC)CCCC)c(=O)c1=O
Activity (Mus musculus [1]): < 10% | Activity (Mus musculus [2]): Non-toxic | Activity (Trypanosoma cruzi [3]): 8.5% | Activity (Trypanosoma cruzi [4]): -7.9% | inhibition (INH) (Trypanosoma cruzi [5]): 38% | Activity (Mus musculus [6]): 30% | pIC50 (Trypanosoma cruzi [7]): 4.68 | Activity (Trypanosoma cruzi [8]): Active | inhibition (INH) (Trypanosoma cruzi [9]): 61% | inhibition in vivo at 25 mg/kg (Trypanosoma cruzi [10]): 21% | Activity (Trypanosoma cruzi [11]): -22.3% | Activity (Mus musculus [12]): 10% | Activity (Trypanosoma cruzi [13]): -12% | pIC50 (Vero): 3.83 | Activity (Mus musculus [14]): < 10% | selectivity ratio [15]: 13.3 | Activity (Trypanosoma cruzi [16]): -21.6% | Activity (Mus musculus [17]): 30% | Activity (Mus musculus [18]): < 10% | Activity (Mus musculus [19]): < 10% | pIC50 (Trypanosoma cruzi [20]): 5.22 | Activity (Mus musculus [21]): 40% | inhibition (INH) (Trypanosoma cruzi [22]): 45% | selectivity ratio [23]: 24.6
